We go through 3 molecules from article PMC11528320, “S-MGBs bearing amidine tail groups are potent, selective antiplasmodial agents” (RSC Medicinal Chemistry, 2024).

One assay relates to P. falciparum 3D7. Put plainly: in vitro asexual P. falciparum imaging assay, 3D7 strain. The note with it: Plasmodium falciparum. Format: cell-based. As to the method: (§1) The antiplasmodial in vitro assay was performed as previously described.[13] In brief, P. falciparum parasites (3D7 and Dd2 strains) were grown in RPMI-1640 medium supplemented with 25 mM HEPES, 5% AB human male serum, 2.5 mg mL^−1 Albumax II, and 0.37 mM hypoxanthine. Parasites were subjected to two rounds of sorbitol synchronization prior to compound addition. Ring stage parasites were incubated with compounds in 384-well imaging CellCarrier microplates, for 72 h at 37 °C, 90% N2, 5% CO2, 5% O2, parasites stained with 4′,6-diamidino-2-phenylindole (DAPI) and imaged using an Opera QEHS microplate confocal imaging system (PerkinElmer). Images were analysed as previously described,[13] and raw data normalized using the in-plate positive and negative controls to obtain percent inhibition, used to calculate IC50 values, through a four-parameter logistic curve fitting in Prism (GraphPad).

The next assay concerns P. falciparum Dd2. Put plainly: in vitro asexual P. falciparum imaging assay, Dd2 strain. Format: cell-based. The note with it: for IC50: Plasmodium falciparum, DD2, 72 h, read-out: Dd2 IC50; for Dd2/3D7: ratio of Dd2 IC50 to 3D7 IC50 (cross-resistance). How it is done: as §1
Another assay has as its system HEK293 cells. Description: HEK293 cell viability (resazurin) assay. It counts as cell-based, Human. The settings on record: for inhibition at 80 µM: Homo sapiens, HEK293, 72 h; for SI, HEK293/3D7: ratio of HEK293 IC50 (or relative IC50) to P. falciparum 3D7 IC50. How it is done: Cell viability was assessed using a minor modification of the protocol previously described.[14] Human embryonic kidney cells (HEK293) were maintained in Dulbecco's modified Eagle's medium supplemented with 10% foetal bovine serum.
(Alamar Blue is a resazurin reagent that responds to reducing activity.)

Assay [1] relates to Salmon genomic DNA (gDNA). Description: UV-vis DNA thermal melting (thermal shift) with gDNA. Format: binding. The note with it: 10 μM S-MGB, 0.02 mg mL^−1 salmon gDNA, N = 3; for Tm of S-MGB + gDNA: gDNA alone 70. How it is done:
Salmon genomic DNA (gDNA; D1626, Sigma-Aldrich) at 1 mg mL^−1 in 1 mM phosphate buffer (pH 7.4) containing 0.27 mM KCl and 13.7 mM NaCl (P4417, Sigma-Aldrich) was annealed at 90 °C for 10 min and left to cool to room temperature. S-MGBs at 10 mM in DMSO were diluted with the same phosphate buffer to yield a single sample with 10 μM S-MGB and 0.02 mg mL^−1 gDNA in 1 mM phosphate buffer containing 0.27 mM KCl and 13.7 mM NaCl. Control samples containing only S-MGB or gDNA were prepared, respectively. Samples were melted at a rate of 0.5 °C min^−1 from 45 °C to 90 °C with spectra recorded at 260 nm on a UV-1900 UV-vis spectrophotometer fitted with a Peltier temperature controller (Shimadzhu) using LabSolutions (Tm Analysis) software. The melting temperatures (Tms) of the S-MGB:DNA complexes were determined by fitting a sigmoidal function using a Boltzmann distribution in OriginPro.

Assay [2] has as its system double stranded DNA oligo 5′-CGCATATATGCG-3′. Description: native mass spectrometry (nESI-MS) of binding to dsDNA oligo. The note with it: 9 μM DNA, 100 μM S-MGB. As to the method: DNA oligonucleotide sequence 5′-[…]-3′ was purchased in lyophilized form from Alpha DNA, Canada) and used without further purification, purity assessed by NMR. 100 μM stock solutions of DNA were prepared with 150 mM ammonium acetate solution (Fisher Scientific, Loughborough, Leicestershire, UK) and 2 mM potassium chloride solution (Fisher Scientific, Loughborough, Leicestershire, UK). This solution was annealed at 90 degrees for 10 minutes and allowed to cool to room temperature. 10 mM S-MGB stock in 100% DMSO (Sigma-Aldrich, St. Louis, MO, USA) were diluted to 1 mM S-MGB solution with 150 mM ammonium acetate. Final samples were prepared from this solution to yield final concentrations of 9 μM DNA, 100 μM KCl, and 100 μM s-MGB, 1% DMSO. DNA solutions containing no S-MGB included 1% DMSO and were used as controls.
Native mass spectrometry experiments were carried out on a Synapt G2Si instrument (Waters, Manchester, UK) with a nanoelectrospray ionization source (nESI). Mass calibration was performed by a separate infusion of NaI cluster ions. Solutions were ionized from a thin-walled borosilicate glass capillary (i.d. 0.78 mm, o.d. 1.0 mm, Sutter Instrument Co., Novato, CA, USA) pulled in-house to nESI tip with a Flaming/Brown micropipette puller (Sutter Instrument Co., Novato, CA, USA). A negative potential in range of 1.0–1.2 kV was applied to the solution via a thin platinum wire (diameter 0.125 mm, Goodfellow, Huntingdon, UK). The following non-default instrument parameters were used for the DNA: S-MGB-241 complex: capillary voltage 1.4 kV, sample cone voltage 100 V, source offset 110 V, source temperature 40 °C, trap collision energy 3.0 (V), trap gas 3 mL min^−1. For DNA with no MGB present, the following parameters were changed: capillary voltage 1.0 kV, sample cone voltage 80 V, source offset 95 V and trap gas 4.0 mL min^−1. Data were processed using Masslynx V4.2 and OriginPro 2021, and figures were produced using Chemdraw.

[3] abbreviates: 3D7, strain not specified, read-out: potency against P. falciparum (approximate, conclusion).

Read-outs that look alike come from different tables or passages of the source. Where only a bound is given, the exact number is not on record here.

Regarding `COc1cccc(/C=C/c2ccc(C(=O)Nc3cc(C(=O)Nc4cc(C(=O)NCCC(=N)N)n(C)c4)n(C)c3)cn2)c1.O=C(O)C(F)(F)F.O=C(O)C(F)(F)F` [S-MGB-368], the IC50 in the assay on P. falciparum 3D7 (3D7, 72 h, read-out: 3D7 IC50) stood at 134 ± 0.3 nM. For the same molecule, in the assay with P. falciparum 3D7 (setting [3]), the IC50 is approximately 100 nM. Besides, in the assay with P. falciparum Dd2, the IC50 came to 201.7 ± 0.3 nM and the Dd2/3D7 was found to be 1.5. In addition, in the assay with HEK293 cells, testing at 80 µM gave an inhibition of 92% and the “SI, HEK293/3D7” value is given as more than 335.8. In the assay with HEK293 cells (listed as 368), the “SI, HEK293/3D7” value is listed as more than 335.8. In assay [1], the ΔTm was 3 °C and the “Tm of S-MGB + gDNA” value was 73 °C. In assay [2], the “binding to dsDNA as dimer [DS + 2 M]” value is reported as “bind to DNA as dimers” and the “binding to dsDNA as monomer [DS + 1 M]” value is listed as “no evidence”.
Regarding `Cn1cc(NC(=O)c2cc(NC(=O)c3ccc(/C=C/c4ccncc4)cc3)cn2C)cc1C(=O)NCCC(=N)N.O=C(O)C(F)(F)F.O=C(O)C(F)(F)F` [S-MGB-365], the IC50 in the assay with P. falciparum 3D7 (3D7, 72 h, read-out: 3D7 IC50) turned out to be 65.3 ± 0.2 nM. Besides, the IC50 with P. falciparum 3D7 (setting [3]) was approximately 100 nM. Besides, in the assay with P. falciparum Dd2, the IC50 was determined as 79.6 ± 0.2 nM and the Dd2/3D7 is 1.2. In addition, in the assay on HEK293 cells, the inhibition at 80 µM turned out to be 95% and the “SI, HEK293/3D7” value is on record as more than 612.6. In addition, the “SI, HEK293/3D7” value in the assay on HEK293 cells (listed as S-MGB-356) is more than 612.6. For the same molecule, in assay [1], the ΔTm came out at 12 °C and the “Tm of S-MGB + gDNA” value was determined as 82 °C. In addition, in assay [2], the “binding to dsDNA as dimer [DS + 2 M]” value is given as “bind to DNA as dimers” and the “binding to dsDNA as monomer [DS + 1 M]” value is “no evidence”.
As to `Cn1cc(NC(=O)c2cc(NC(=O)c3ccc(/C=C/c4ccc5ccccc5c4)cc3)cn2C)cc1C(=O)NCCC(=N)N.O=C(O)C(F)(F)F` [S-MGB-359], the IC50 in the assay on P. falciparum 3D7 (3D7, 72 h, read-out: 3D7 IC50) amounted to 302.1 ± 0.6 nM. In addition, the IC50 in the assay with P. falciparum 3D7 (setting [3]) is approximately 100 nM. In the assay with P. falciparum Dd2, the IC50 turned out to be 318.6 ± 1.1 nM and the Dd2/3D7 came to 1.1. Besides, in the assay on HEK293 cells, testing at 80 µM gave an inhibition of 23% and the “SI, HEK293/3D7” value is listed as more than 264.8. Also, the “HEK293 top concentration tested, used to calculate SI” value in the assay with HEK293 cells (not rIC50 as < 30% inhibition) was 80 nM. The “SI, HEK293/3D7” value in the assay with HEK293 cells (listed as 359) is more than 264.8. Further, in assay [1], the ΔTm was determined as 16 °C and the “Tm of S-MGB + gDNA” value is 86 °C. Also, in assay [2], the “binding to dsDNA as dimer [DS + 2 M]” value is listed as “bind to DNA as dimers” and the “binding to dsDNA as monomer [DS + 1 M]” value is given as “minor peak corresponding to the monomer complex”.

The term inhibition denotes the relative decrease from the control value, in per cent. One may read the ΔTm as the change in melting temperature against a reference sample.
